Some test systems named below: MDA-MB-231 breast; KM12 colon; SK-MEL-2 melanoma; EKVX NSCLC; SNB-75 CNS; SF-539 CNS; DU-145 prostate; MALME-3M melanoma; NCI-H23 lung; OVCAR-3 ovarian.
Assay in all cases: inhibition of tumour cell growth, NCI panel, 48 h

The results in this text go back to PubChem BioAssay (NCI).

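Following 48 hours of exposure in 96-well plates, responses at five concentrations were used to interpolate endpoints linearly. GI50 marks 50% less growth. Definition used: TGI = concentration required for complete inhibition of growth.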 Bounds are passed on as bounds.

As for `O=C(NCCCCCCNC(=O)n1cc(F)c(=O)[nH]c1=O)NCCCOCCOCCOCCOCCOCCOCCOCCOCCOCCOCCOCCOCCOCCOCCOCCOCCOCCOCCOCCOCCOCCCNC(=O)C(O)C(O)C(OC1OC(CO)C(O)C(O)C1O)C(O)CO` (stereo not given), the TGI was > 100 µM in the assay with MDA-MB-231 breast; > 100 µM with KM12 colon; > 100 µM in the assay on SK-MEL-2 melanoma; > 100 µM in the assay with EKVX NSCLC; > 43.7 µM with SNB-75 CNS; 22.7 µM in the assay with SF-539 CNS. Besides, the TGI in the assay with DU-145 prostate, in the assay on MALME-3M melanoma, in the assay on NCI-H23 lung and in the assay on OVCAR-3 ovarian was > 100 µM in each case.

With `N#Cc1ccc(C2C3=C(CCCC3=O)OC3=C2C(=O)c2ccccc2C3=O)cc1` (stereo not given), the GI50 is 0.447 µM with MDA-MB-231 breast; 3.14 µM with KM12 colon; 1.35 µM in the assay with SK-MEL-2 melanoma; 1.28 µM in the assay with EKVX NSCLC; 1.35 µM in the assay with SNB-75 CNS; 1.69 µM with SF-539 CNS. For the same compound, the GI50 was 1.67 µM in the assay on DU-145 prostate, 1.55 µM in the assay on MALME-3M melanoma, 1.25 µM with NCI-H23 lung and 0.27 µM in the assay with OVCAR-3 ovarian. Also, the TGI with MDA-MB-231 breast was found to be 1.83 µM; in the assay with KM12 colon, 12.9 µM; with SK-MEL-2 melanoma it was 3.33 µM; in the assay with EKVX NSCLC, 3.86 µM; in the assay on SNB-75 CNS, 2.65 µM; with SF-539 CNS, 3.06 µM. For the same compound, the TGI with DU-145 prostate was 3.07 µM; in the assay with MALME-3M melanoma, 3.05 µM; in the assay with NCI-H23 lung it was 5.03 µM; in the assay on OVCAR-3 ovarian, 0.711 µM.

In the case of `COc1ccc(SC2c3ccc(C)cc3Oc3nc(N)c(C#N)c(N)c32)cc1` (stereo not given), the GI50 in the assay on MDA-MB-231 breast is 1.81 µM; with KM12 colon, 1.61 µM; with SK-MEL-2 melanoma, 1.72 µM; in the assay on EKVX NSCLC, 1.73 µM; with SNB-75 CNS it was 1.46 µM; with SF-539 CNS, 1.64 µM. Further, the GI50 in the assay with DU-145 prostate was 1.82 µM; in the assay on MALME-3M melanoma, 1.68 µM; in the assay on NCI-H23 lung, 1.67 µM; in the assay on OVCAR-3 ovarian, 1.75 µM. The TGI was determined as 3.28 µM with MDA-MB-231 breast; 3.05 µM in the assay with KM12 colon; 3.59 µM with SK-MEL-2 melanoma; 3.2 µM in the assay on EKVX NSCLC; 3.21 µM in the assay on SNB-75 CNS; 3 µM in the assay on SF-539 CNS. Moreover, the TGI with DU-145 prostate was 3.21 µM; in the assay with MALME-3M melanoma, 3.13 µM; in the assay with NCI-H23 lung it was 3.31 µM; in the assay with OVCAR-3 ovarian, 3.13 µM.

For the compound `O=C(O)c1ccc2c3c(ncnc13)-c1ccccc1C2=O`, the GI50 is > 100 µM with MDA-MB-231 breast; 7 µM in the assay with KM12 colon; 20.7 µM in the assay on SK-MEL-2 melanoma; 51.6 µM in the assay on EKVX NSCLC; 3.21 µM in the assay with SNB-75 CNS; 8.5 µM in the assay on SF-539 CNS. The GI50 was 1.46 µM with DU-145 prostate, 0.517 µM in the assay with MALME-3M melanoma, 0.796 µM in the assay on NCI-H23 lung and 31.2 µM with OVCAR-3 ovarian. The TGI with MDA-MB-231 breast is > 100 µM; in the assay on KM12 colon, > 100 µM; in the assay on SK-MEL-2 melanoma, > 100 µM; in the assay with EKVX NSCLC, > 100 µM; in the assay with SNB-75 CNS, > 21 µM; with SF-539 CNS it was > 100 µM. In addition, the TGI in the assay on DU-145 prostate is 2.83 µM; in the assay with MALME-3M melanoma, 1.58 µM; in the assay with NCI-H23 lung, 3.05 µM; with OVCAR-3 ovarian it was > 100 µM.

Regarding `CCOc1ccc2nc(-c3cccc(OCC(=O)NC(C)C)c3)nc(Nc3ccc(-c4cn[nH]c4)cc3)c2c1`, the GI50 in the assay on MDA-MB-231 breast was 1.68 µM; with KM12 colon, 0.527 µM; with SK-MEL-2 melanoma, 1.56 µM; with EKVX NSCLC, 1.22 µM; with SNB-75 CNS it was 1.16 µM; with SF-539 CNS, 1.25 µM. The GI50 was 0.403 µM in the assay on DU-145 prostate, 0.324 µM in the assay with MALME-3M melanoma, 1.29 µM in the assay on NCI-H23 lung and 1.34 µM with OVCAR-3 ovarian. In addition, the TGI in the assay on MDA-MB-231 breast was determined as 10.7 µM; with KM12 colon it was 6.9 µM; in the assay with SK-MEL-2 melanoma, 5.31 µM; with EKVX NSCLC, 8.34 µM; with SNB-75 CNS it was 2.48 µM; in the assay on SF-539 CNS, 2.67 µM. The TGI with DU-145 prostate was 2.91 µM; with MALME-3M melanoma, 1.79 µM; with NCI-H23 lung, 10.2 µM; in the assay on OVCAR-3 ovarian, 3.12 µM.

In the case of `c1cncc(-c2nc3ccccc3s2)c1`, the GI50 in the assay on MDA-MB-231 breast is > 100 µM; in the assay on KM12 colon, > 100 µM; with SK-MEL-2 melanoma, > 100 µM; in the assay with EKVX NSCLC, 41.2 µM; in the assay with SNB-75 CNS it was 58.4 µM; in the assay on SF-539 CNS it was > 100 µM. Moreover, the GI50 with DU-145 prostate, in the assay with MALME-3M melanoma, in the assay on NCI-H23 lung and in the assay on OVCAR-3 ovarian was > 100 µM each time. Further, the TGI in the assay on MDA-MB-231 breast, in the assay with KM12 colon, in the assay with SK-MEL-2 melanoma, in the assay with EKVX NSCLC, in the assay with SNB-75 CNS and in the assay with SF-539 CNS was > 100 µM each time. The TGI with DU-145 prostate, with MALME-3M melanoma, in the assay on NCI-H23 lung and in the assay with OVCAR-3 ovarian was > 100 µM each time.

Turning to `COc1ccc2nc3cc([N+](=O)[O-])ccc3c(NCCCN(CCO)CCO)c2c1`, the GI50 with MDA-MB-231 breast was 7.78 µM; with KM12 colon, 2.64 µM; in the assay with SK-MEL-2 melanoma, 1.49 µM; with EKVX NSCLC it was 7.48 µM; with SNB-75 CNS, 10.9 µM; in the assay with SF-539 CNS, 7.63 µM. For the same compound, the GI50 in the assay on DU-145 prostate was 12.6 µM; in the assay with MALME-3M melanoma it was 2.21 µM; with NCI-H23 lung, 6.43 µM; in the assay on OVCAR-3 ovarian, 5.53 µM. Further, the TGI was found to be 21.8 µM with MDA-MB-231 breast; 9.97 µM with KM12 colon; 3.2 µM with SK-MEL-2 melanoma; 18.4 µM in the assay with EKVX NSCLC; 22.9 µM with SNB-75 CNS; 20.3 µM with SF-539 CNS. Further, the TGI in the assay with DU-145 prostate worked out at 43.4 µM; in the assay with MALME-3M melanoma it was 5.3 µM; with NCI-H23 lung it was 14.2 µM; in the assay with OVCAR-3 ovarian it was 12.3 µM.
